Experimental data from patent US4476319A, “P-Chlorophenoxyacetic acid derivative, its method of preparation, the pharmaceutical compositions containing it and its use in medicine” (Sociedad Espanola de Especialidades Farmaco-Terapeuticas …, priority 1981, dated 1984).

Columns and labels:
[1] = test system: loss of memory induced by electric shock; test: Nootropa activity: protection from memory loss induced by electric shock, aquatic labyrinth (number of errors); assay type: in vivo, rat; settings: rats
Experimental: Tests were carried out on rats using the technique estimating the loss of memory induced by electric shock, the loss of memory being determined as related to the number of errors made in seeking the outlet from an acquatic labyrinth (Giurgea C. J. Pharmacol (Paris) 3, 1, 17, *1972).

LD50 in the rat = settings: in vivo
[2] = test system: learning in the conditioning cage; test: Learning activity: conditioning cage (electric shock avoidance); assay type: in vivo
[3] = test system: cataleptic condition in rats, induced by fluphenazine; test: Anti-cataleptic activity: Morpurgo test, antagonism of fluphenazine-induced catalepsy; assay type: in vivo, rat
From the text: This activity was the subject of Morpurgo tests (Arch. Int. Pharmacodyn, 137, 84 (1962), based on antagonizing the cataleptic condition in rats, induced by fluphenazine.

LD50 in the mouse = settings: in vivo
[4] = test system: desperation behavior in mice; test: Anti-depressant activity: desperation behavior in mice (Porsalt); assay type: in vivo, mouse
Experimental: This activity was evaluated by the method of examining the desperation behavior in mice (Porsalt, T. D., Arch. Int Pharmacodyn 229, 327 (1977).
A state of despair was induced by placing the animal in a cylinder containing water, and from which escape was impossible, the animal then finding itself obliged to treadmill continually. After a period of vigorous activity, the mouse assumes a characteristic immobile posture, which behavior is capable of reduction by the use of various types of pharmaceutical anti-depressants.

[5] = test system: learning in the acquatic labyrinth; test: Learning activity: learning in the acquatic labyrinth; assay type: in vivo
[6] = Toxicity, Irwin or "screening" multi-dimensional test; assay type: in vivo
[7] = ip, i.p. (intraperitoneal route)
[8] = statement covers acquatic labyrinth and conditioning cage tests

O=C(COc1ccc(Cl)cc1)OCCNC12CC3CC(CC(C3)C1)C2 [Compound I, p-chlorophenoxyacetate of 1-aminoadamantine-2-ethanol]
Nootropa activity, in words ([1]; loss of memory by electric shock): notably active | Protection from memory loss due to electric shock (number of errors) ([1]; number of errors in acquatic labyrinth, p < 0.01): 46.5% | LD50 (LD50 in the rat; [7]): 360 mg/kg | LD50 (LD50 in the rat; p.o. (oral route)): > 4000 mg/kg | Learning facility in the conditioning cage, in words [2, 8]: increased learning facility | Increase with respect to the control in the conditioning cage (learning facility) ([2]; vs control, p < 0.001): 14.4% | Reduction of the cataleptic activity of fluphenazine, in words [3]: slightly reduced the cataleptic activity of the fluphenazine | LD50 (LD50 in the mouse; [7]): 415 mg/kg | LD50 (LD50 in the mouse; p.o. (oral route)): > 4000 mg/kg | Anti-depressant effects, in words ([4]; desperation behavior): moderate anti-depressant effects | Protection with respect to the control (anti-depressant activity) ([4]; vs control, p < 0.001): 45.9% | Decrease with respect to the control in the errors made in the acquatic labrinth (5th day) ([5]; 5th day, vs control, p < 0.01): 51.6% | Learning facility in the acquatic labyrinth, in words [5, 8]: increased learning facility | Toxicity: effects of non-toxic doses ([6]; non-toxic doses): no evidence as to effects of non-toxic doses | Toxicity: effects of toxic doses ([6]; toxic doses): death accompanied by trembling and clonic convulsions
